Test results published in patent publication US8241607B2, “Use of fructose-based compounds for the diagnosis of cancer” (priority 2005, dated 2012).

Tests used:
Assay type in all cases: cell-based
AP-1 = AP-1 probe binding assay on nuclear extracts of PANC-1 cells; settings: 5.5 mM fructose, 48 h
Experimental: FIG. 24 depicts luciferase activity of PANC-1 cells and primary culture of surgically resected pancreatic tumor cells in accordance with an embodiment of the present invention. PANC-1 pancreatic cancer cells and a primary culture of a surgically resected pancreatic tumor were incubated in 2 mM glucose, 5.5 mM glucose or 5.5 mM fructose for 48 h, after which nuclear extracts were incubated with a biotinylated AP-1 probe, and detected by an antibody-linked colorimetric method. *, p<0.01
In separate experiments PANC-1 cells, and primary cultures of surgically resected pancreatic tumors were incubated in 2 mM glucose, or 5.5 mM glucose or 5.5 mM fructose for 48 h, after which nuclear extracts were incubated with a biotinylated AP-1 probe in binding buffer. AP-1/AP1 probe complexes were next conjugated to a streptavidin-coated assay plate and detected using an AP-1 specific antibody, followed by binding of a horseradish-peroxidase conjugated secondary antibody, and detection by a colorimetric reagent.

PANC-1 cells = assay: [1,2-13C2] stable isotope-based dynamic metabolic profiling in PANC-1 cells; settings: 72 h
Experimental: FIG. 28 depicts the metabolism of fructose and glucose in pancreatic cancer cells in accordance with an embodiment of the present invention. Lactate generation from glycolysis (a), and hexose oxidation in the pentose and tricarboxylic acid cycles (b) following treatment of PANC-1 cells with 2 mM glucose, 5.5 mM glucose, and 5.5 mM fructose for 72 h. […] In (b), the ^13C to ^12C ratio in the CO2 released from the PANC-1 cells is presented.
FIG. 29 depicts fatty acid synthesis from glucose versus fructose in accordance with an embodiment of the present invention. Fatty acid synthesis represented by (a), ^13C-labelled oleate, (b) ^13C-labelled arachidic acid, and (c) ^13C-labelled 24-carbon fatty acid fraction following treatment of PANC-1 cells with 2 mM, and 5.5 mM glucose, and 5.5 mM fructose for 72 h. For the fatty acids, the fraction of ^13C-labeled oleate, arachidic acid or 24-carbon fatty acid is expressed as percentage of total oleate, arachidic acid or 24-carbon fatty acids, respectively.
FIG. 30 depicts ribose and deoxyribose synthesis following glucose and fructose treatment in accordance with an embodiment of the present invention.
Metabolism comprises anabolic (converting small molecules into big ones) and catabolic processes (converting food into useful energy), predicts the functional state of a cell, and analyzes the levels of the end products (metabolites) of anabolism and catabolism. Metabolic profiling using stable isotope tracer technology ([1,2-^13C] sugars) allows the measurement of the changing pattern of distribution of ^13C carbons from [1,2-^13C] glucose in intracellular metabolic intermediates, and provides a simultaneous measure of carbon flow toward the pentose cycle, glycolysis, direct glucose oxidation, tricarboxylic acid (TCA) cycle and fatty acid synthesis (76,77). […] The inventors employed [1,2-^13C2] glucose, or [1,2-^13C2] fructose stable isotope-based dynamic metabolic profiling (SiDMAP, Los Angeles, US) to track and quantify changes in glucose, and fructose carbon re-distribution among major metabolic pathways in pancreatic cancer cells (Lee W N, Boros L G, Puigjaner J, Bassilian S, Lim S, Cascante M. Mass istopomer study of transketolase-transaldolase pathways of the pentose cycle with [1,2-^13C2]glucose. Am J Physiol 274:E843-51, 1998; Lee W N, Byerley L O, Bassilian S, Ajie H O, Clark I, Edmond J. Isotopomer study of lipogenesis in human hepatoma cells in culture: contribution of carbon and hydrogen atoms from glucose. Anal Biochem 226: 100-112). The principles of this methodology are outlined below in a series of schematics (FIGS. 25-27) illustrating how this technique tracked carbohydrate metabolism and the data generated. […]

MCF-7 cells = assay: Breast cancer cell proliferation in fructose versus glucose (MTT assay); settings: 5 mM fructose compared to 5 mM glucose, 8-72 h
Experimental: (§1) Estrogen receptor (ER) positive MCF-7, and ER negative MDA-MB231 cells were plated in 5 mM fructose or glucose for times between 8-72 h, and proliferative rates measured using MTT assay. *, p<0.05; **, p<0.01.
(§2) FIG. 5 depicts fructose-mediated increased breast cancer proliferation in accordance with an embodiment of the present invention. ER positive MCF-7, and ER negative MDA-MB231 cells were plated in a range of fructose or glucose concentrations (5-25 mM) for 72 h, after which proliferative rates were measured using an MTT assay. *, p<0.05 for concentrations between 5-25 mM fructose versus glucose.
(§3) Standard media for breast cancer cell culture contain either 5-7 mM (low) and 12-25 mM (high) glucose concentrations. Estrogen receptor (ER) positive MCF-7, and ER negative MDA-MB231 cells were cultured overnight in 2 mM glucose standard DMEM medium containing 10% fetal bovine serum prior to incubation for periods between 8, and 72 hours in standard DMEM medium containing 10% fetal bovine serum, and 5 mM glucose or 5 mM fructose.
(§4) Proliferative rates were then measured in replicate (minimum of 6) aliquot wells of the breast cancer cells grown in glucose, or fructose containing medium. […] In separate experiments, proliferative rates of the MCF-7, and MDA-MB231 breast cancer cells were compared following culture in a range of fructose, and glucose concentrations (2-25 mM) for 72 hours.

MDA-MB231 cells = assay: as above; settings: 5 mM fructose compared to 5 mM glucose, 8-72 h
Experimental: as §1, §2, §3, §4

O=C(CO)[C@@H](O)[C@H](O)[C@H](O)CO [fructose]
AP-1 luciferase reporter activity higher than in 5.5 mM glucose (AP-1): approximately 40% | route of metabolism in the pentose phosphate shunt (PANC-1 cells; 5.5 mM 13C-labeled sugar): preferentially metabolized by TKK | fraction metabolized for fatty acid synthesis (FAS) (PANC-1 cells; 13C-labeled fructose vs glucose): comparatively less | CO2 production, fructose in comparison to glucose (PANC-1 cells; 13C-labeled sugar): 34 fold lower | lactate production, fructose in comparison to glucose (PANC-1 cells; 13C-labeled sugar): 34 fold lower | proliferative rates (MCF-7 cells): higher proliferative rates | proliferative rates (MDA-MB231 cells): higher proliferative rates
